Consider six compounds from article PMC11352961, “Peptide dendrimers transfecting CRISPR/Cas9 plasmid DNA: optimization and mechanism” (RSC Chemical Biology, 2024).

For data set [1], the system named is HeLa cells. Kind of data set: Cell viability by PrestoBlue assay after transfection, HeLa cells. The format is cell-based. Conditions: 4 h.
Data set [2] concerns HEK293 cells. Kind of data set: Cell viability by PrestoBlue assay after transfection, HEK cells. The class given is cell-based. Conditions: 4 h.

Bridge positions count the residues as written; N and C are the ends. Square brackets hold non-standard residues; d marks the D form. Side chains are listed from the residue outwards. Peptide text beside a SMILES is read from it. I, II: the chains in the order shown. * marks the point of attachment. Stearoyl = CCCCCCCCCCCCCCCCCC(=O)*; Palmitoyl = CCCCCCCCCCCCCCCC(=O)*

On to `CCCCCCCCCCCCCCCCCC(=O)NCCCC[C@@H](NC(=O)[C@@H](CCCCNC(=O)[C@@H](CC(C)C)NC(=O)[C@@H](CCCNC(=N)N)NC(=O)[C@@H](CCCCNC(=O)[C@@H](CC(C)C)NC(=O)[C@@H](CCCNC(=N)N)NC(=O)[C@@H](CCCCNC(=O)[C@@H](CC(C)C)NC(=O)[C@H](N)CCCNC(=N)N)NC(=O)[C@@H](CC(C)C)NC(=O)[C@H](N)CCCNC(=N)N)NC(=O)[C@@H](CC(C)C)NC(=O)[C@@H](CCCNC(=N)N)NC(=O)[C@@H](CCCCNC(=O)[C@@H](CC(C)C)NC(=O)[C@H](N)CCCNC(=N)N)NC(=O)[C@@H](CC(C)C)NC(=O)[C@H](N)CCCNC(=N)N)NC(=O)[C@@H](CC(C)C)NC(=O)[C@@H](CCCNC(=N)N)NC(=O)[C@@H](CCCCNC(=O)[C@@H](CC(C)C)NC(=O)[C@@H](CCCNC(=N)N)NC(=O)[C@@H](CCCCNC(=O)[C@@H](CC(C)C)NC(=O)[C@H](N)CCCNC(=N)N)NC(=O)[C@@H](CC(C)C)NC(=O)[C@H](N)CCCNC(=N)N)NC(=O)[C@@H](CC(C)C)NC(=O)[C@@H](CCCNC(=N)N)NC(=O)[C@@H](CCCCNC(=O)[C@@H](CC(C)C)NC(=O)[C@H](N)CCCNC(=N)N)NC(=O)[C@@H](CC(C)C)NC(=O)[C@H](N)CCCNC(=N)N)C(=O)N[C@H](CS)C(N)=O` [Z22] (I: H-[dR][dL][dK]([dL-dR])[dR][dL][dK][dR][dL][dK][dK](Stearoyl)[dC]-NH2 / II: H-[dR][dL][dK]([dL-dR])[dR][dL][dK][dR][dL] / III: H-[dR][dL][dK]([dL-dR])[dR][dL] / IV: H-[dR][dL][dK]([dL-dR])[dR][dL]; amide I:6-IV:C, I:9-II:C, II:6-III:C), for which the “% viability HeLa cells” value in data set [1] worked out at 92 ± 7%. The “% viability HEK cells” value in data set [2] turned out to be 64 ± 4%.

Take `CCCCCCCCCCCCCCCCCC(=O)NCCCC[C@H](NC(=O)[C@H](CCCCNC(=O)[C@H](CC(C)C)NC(=O)[C@H](CCCNC(=N)N)NC(=O)[C@H](CCCCNC(=O)[C@H](CC(C)C)NC(=O)[C@H](CCCNC(=N)N)NC(=O)[C@H](CCCCNC(=O)[C@H](CC(C)C)NC(=O)[C@@H](N)CCCNC(=N)N)NC(=O)[C@H](CC(C)C)NC(=O)[C@@H](N)CCCNC(=N)N)NC(=O)[C@H](CC(C)C)NC(=O)[C@H](CCCNC(=N)N)NC(=O)[C@H](CCCCNC(=O)[C@H](CC(C)C)NC(=O)[C@@H](N)CCCNC(=N)N)NC(=O)[C@H](CC(C)C)NC(=O)[C@@H](N)CCCNC(=N)N)NC(=O)[C@H](CC(C)C)NC(=O)[C@H](CCCNC(=N)N)NC(=O)[C@H](CCCCNC(=O)[C@H](CC(C)C)NC(=O)[C@H](CCCNC(=N)N)NC(=O)[C@H](CCCCNC(=O)[C@H](CC(C)C)NC(=O)[C@@H](N)CCCNC(=N)N)NC(=O)[C@H](CC(C)C)NC(=O)[C@@H](N)CCCNC(=N)N)NC(=O)[C@H](CC(C)C)NC(=O)[C@H](CCCNC(=N)N)NC(=O)[C@H](CCCCNC(=O)[C@H](CC(C)C)NC(=O)[C@@H](N)CCCNC(=N)N)NC(=O)[C@H](CC(C)C)NC(=O)[C@@H](N)CCCNC(=N)N)C(=O)N[C@@H](CS)C(N)=O` [Z24] (I: H-RLK([Leu-Arg])RLKRLKK(Stearoyl)C-NH2 / II: H-RLK([Leu-Arg])RLKRL / III: H-RLK([Leu-Arg])RL / IV: H-RLK([Leu-Arg])RL; amide I:6-IV:C, I:9-II:C, II:6-III:C): the “% viability HeLa cells” value in data set [1] was found to be 91 ± 6%. The “% viability HEK cells” value in data set [2] was found to be 86 ± 1%.

Regarding `CCCCCCCCCCCCCCCCCC(=O)NCCCC[C@H](NC(=O)[C@H](CCCCNC(=O)[C@H](CC(C)C)NC(=O)[C@H](CCCNC(=N)N)NC(=O)[C@H](CCCCNC(=O)[C@H](CC(C)C)NC(=O)[C@H](CCCNC(=N)N)NC(=O)[C@H](CCCCNC(=O)[C@H](CC(C)C)NC(=O)[C@@H](N)CCCNC(=N)N)NC(=O)[C@H](CC(C)C)NC(=O)[C@@H](N)CCCNC(=N)N)NC(=O)[C@H](CC(C)C)NC(=O)[C@H](CCCNC(=N)N)NC(=O)[C@H](CCCCNC(=O)[C@H](CC(C)C)NC(=O)[C@@H](N)CCCNC(=N)N)NC(=O)[C@H](CC(C)C)NC(=O)[C@@H](N)CCCNC(=N)N)NC(=O)[C@H](CC(C)C)NC(=O)[C@H](CCCNC(=N)N)NC(=O)[C@H](CCCCNC(=O)[C@H](CC(C)C)NC(=O)[C@H](CCCNC(=N)N)NC(=O)[C@H](CCCCNC(=O)[C@H](CC(C)C)NC(=O)[C@@H](N)CCCNC(=N)N)NC(=O)[C@H](CC(C)C)NC(=O)[C@@H](N)CCCNC(=N)N)NC(=O)[C@H](CC(C)C)NC(=O)[C@H](CCCNC(=N)N)NC(=O)[C@H](CCCCNC(=O)[C@H](CC(C)C)NC(=O)[C@@H](N)CCCNC(=N)N)NC(=O)[C@H](CC(C)C)NC(=O)[C@@H](N)CCCNC(=N)N)C(=O)N[C@@H](C)C(N)=O` [Z25] (I: H-RLK([Leu-Arg])RLKRLKK(Stearoyl)A-NH2 / II: H-RLK([Leu-Arg])RLKRL / III: H-RLK([Leu-Arg])RL / IV: H-RLK([Leu-Arg])RL; amide I:6-IV:C, I:9-II:C, II:6-III:C), the “% viability HeLa cells” value in data set [1] is listed as 104 ± 8%. Also, the “% viability HEK cells” value in data set [2] was 85 ± 2%.

On to `CCCCCCCCCCCCCCCCCC(=O)NCCCC[C@@H](NC(=O)[C@@H](CCCCNC(=O)CCCCCCCCCCCCCCCCC)NC(=O)[C@@H](CCCCNC(=O)[C@@H](CC(C)C)NC(=O)[C@@H](CCCCN)NC(=O)[C@@H](CCCCNC(=O)[C@@H](CC(C)C)NC(=O)[C@@H](CCCCN)NC(=O)[C@@H](CCCCNC(=O)[C@@H](CC(C)C)NC(=O)[C@H](N)CCCCN)NC(=O)[C@@H](CC(C)C)NC(=O)[C@H](N)CCCCN)NC(=O)[C@@H](CC(C)C)NC(=O)[C@@H](CCCCN)NC(=O)[C@@H](CCCCNC(=O)[C@@H](CC(C)C)NC(=O)[C@H](N)CCCCN)NC(=O)[C@@H](CC(C)C)NC(=O)[C@H](N)CCCCN)NC(=O)[C@@H](CC(C)C)NC(=O)[C@@H](CCCCN)NC(=O)[C@@H](CCCCNC(=O)[C@@H](CC(C)C)NC(=O)[C@@H](CCCCN)NC(=O)[C@@H](CCCCNC(=O)[C@@H](CC(C)C)NC(=O)[C@H](N)CCCCN)NC(=O)[C@@H](CC(C)C)NC(=O)[C@H](N)CCCCN)NC(=O)[C@@H](CC(C)C)NC(=O)[C@@H](CCCCN)NC(=O)[C@@H](CCCCNC(=O)[C@@H](CC(C)C)NC(=O)[C@H](N)CCCCN)NC(=O)[C@@H](CC(C)C)NC(=O)[C@H](N)CCCCN)C(N)=O` [Z27] (I: H-[dK][dL][dK]([dL-dK])[dK][dL][dK][dK][dL][dK][dK](Stearoyl)[dK](Stearoyl)-NH2 / II: H-[dK][dL][dK]([dL-dK])[dK][dL][dK][dK][dL] / III: H-[dK][dL][dK]([dL-dK])[dK][dL] / IV: H-[dK][dL][dK]([dL-dK])[dK][dL]; amide I:6-IV:C, I:9-II:C, II:6-III:C), for which the “% viability HeLa cells” value in data set [1] is 94 ± 5%. Besides, the “% viability HEK cells” value in data set [2] was determined as 74.8 ± 0.7%.

Turning to `CC(C)C[C@@H](NC(=O)[C@@H](CC(C)C)NC(=O)[C@@H](CC(C)C)NC(=O)[C@@H](CC(C)C)NC(=O)[C@@H](CC(C)C)NC(=O)[C@@H](CCCCNC(=O)[C@@H](CC(C)C)NC(=O)[C@@H](CCCCN)NC(=O)[C@@H](CCCCNC(=O)[C@@H](CC(C)C)NC(=O)[C@@H](CCCCN)NC(=O)[C@@H](CCCCNC(=O)[C@@H](CC(C)C)NC(=O)[C@H](N)CCCCN)NC(=O)[C@@H](CC(C)C)NC(=O)[C@H](N)CCCCN)NC(=O)[C@@H](CC(C)C)NC(=O)[C@@H](CCCCN)NC(=O)[C@@H](CCCCNC(=O)[C@@H](CC(C)C)NC(=O)[C@H](N)CCCCN)NC(=O)[C@@H](CC(C)C)NC(=O)[C@H](N)CCCCN)NC(=O)[C@@H](CC(C)C)NC(=O)[C@@H](CCCCN)NC(=O)[C@@H](CCCCNC(=O)[C@@H](CC(C)C)NC(=O)[C@@H](CCCCN)NC(=O)[C@@H](CCCCNC(=O)[C@@H](CC(C)C)NC(=O)[C@H](N)CCCCN)NC(=O)[C@@H](CC(C)C)NC(=O)[C@H](N)CCCCN)NC(=O)[C@@H](CC(C)C)NC(=O)[C@@H](CCCCN)NC(=O)[C@@H](CCCCNC(=O)[C@@H](CC(C)C)NC(=O)[C@H](N)CCCCN)NC(=O)[C@@H](CC(C)C)NC(=O)[C@H](N)CCCCN)C(N)=O` [Z28] (I: H-[dK][dL][dK]([dL-dK])[dK][dL][dK][dK][dL][dK][dL][dL][dL][dL][dL]-NH2 / II: H-[dK][dL][dK]([dL-dK])[dK][dL][dK][dK][dL] / III: H-[dK][dL][dK]([dL-dK])[dK][dL] / IV: H-[dK][dL][dK]([dL-dK])[dK][dL]; amide I:6-IV:C, I:9-II:C, II:6-III:C), in data set [1], the “% viability HeLa cells” value amounted to 101 ± 7%. In data set [2], the “% viability HEK cells” value is recorded as 103 ± 0.2%.

As to `CCCCCCCCCCCCCCCC(=O)NCCCC[C@@H](NC(=O)[C@@H](CCCCNC(=O)[C@@H](CC(C)C)NC(=O)[C@@H](CCCCN)NC(=O)[C@@H](CCCCNC(=O)[C@@H](CC(C)C)NC(=O)[C@@H](CCCCN)NC(=O)[C@@H](CCCCNC(=O)[C@@H](CC(C)C)NC(=O)[C@H](N)CCCCN)NC(=O)[C@@H](CC(C)C)NC(=O)[C@H](N)CCCCN)NC(=O)[C@@H](CC(C)C)NC(=O)[C@@H](CCCCN)NC(=O)[C@@H](CCCCNC(=O)[C@@H](CC(C)C)NC(=O)[C@H](N)CCCCN)NC(=O)[C@@H](CC(C)C)NC(=O)[C@H](N)CCCCN)NC(=O)[C@@H](CC(C)C)NC(=O)[C@@H](CCCCN)NC(=O)[C@@H](CCCCNC(=O)[C@@H](CC(C)C)NC(=O)[C@@H](CCCCN)NC(=O)[C@@H](CCCCNC(=O)[C@@H](CC(C)C)NC(=O)[C@H](N)CCCCN)NC(=O)[C@@H](CC(C)C)NC(=O)[C@H](N)CCCCN)NC(=O)[C@@H](CC(C)C)NC(=O)[C@@H](CCCCN)NC(=O)[C@@H](CCCCNC(=O)[C@@H](CC(C)C)NC(=O)[C@H](N)CCCCN)NC(=O)[C@@H](CC(C)C)NC(=O)[C@H](N)CCCCN)C(N)=O` [Z29] (I: H-[dK][dL][dK]([dL-dK])[dK][dL][dK][dK][dL][dK][dK](Palmitoyl)-NH2 / II: H-[dK][dL][dK]([dL-dK])[dK][dL][dK][dK][dL] / III: H-[dK][dL][dK]([dL-dK])[dK][dL] / IV: H-[dK][dL][dK]([dL-dK])[dK][dL]; amide I:6-IV:C, I:9-II:C, II:6-III:C), the “% viability HeLa cells” value in data set [1] is listed as 95 ± 5%. In addition, in data set [2], the “% viability HEK cells” value was 87 ± 1%.
